Measurements taken from US20250296955A1, “PIN1 TARGETING COMPOUNDS AND DEGRADERS AND METHODS THEREOF” (The Regents of the University of California, priority 2024, published 2025).
Where a SMILES comes first, the peptide text is derived from it. [ ]: non-standard residue; d: D form. The star is where a group is joined. Tyr(3-NO2) = N[C@@H](Cc1ccc(O)c([N+](=O)[O-])c1)C(=O)O; Trp(6-Cl) = N[C@@H](Cc1c[nH]c2cc(Cl)ccc12)C(=O)O; Trp(5-OH) = N[C@@H](Cc1c[nH]c2ccc(O)cc12)C(=O)O; Trp(5-F) = N[C@@H](Cc1c[nH]c2ccc(F)cc12)C(=O)O; Trp(7-Me) = Cc1cccc2c(C[C@H](N)C(=O)O)c[nH]c12; Phe(4-Cl) = N[C@@H](Cc1ccc(Cl)cc1)C(=O)O; Phe(4-F) = N[C@@H](Cc1ccc(F)cc1)C(=O)O; 4Pal = N[C@@H](Cc1ccncc1)C(=O)O; Pip = O=C(O)[C@@H]1CCCCN1; ClAc = O=C(CCl)*

What was measured:
Pin1 [1] = target: T1, Pin1 (Homo sapiens, UniProt Q13526); assay: Denaturation thermal shift assay (SYPRO Orange); format: binding; design: human Pin1 (residues 1-163); made in house; host or cells: E. coli BL21 (DE3) gold pLysS
Excerpt: (§1) Important to the success of structure activity relations studies, robust biochemical, biophysical, and cell-based assays were implemented that enabled rapid and iterative evaluations of test Pin1 targeting agents. First, the DELFIA (Dissociation-enhanced lanthanide fluorescent immunoassay) assay platform was used to derive a robust heterogeneous assay to monitor the ability of test agents to displace the binding between Pin1 and the D-Peptide (Table 1), which was obtained in a biotinylated form (FIG. 10). […] Second, for an orthogonal biophysical assay denaturation thermal shift measurements were used. Pin1 was incubated with vehicle control (buffer with 1% DMSO), or test agents at protein: ligand ratio of 1:2 (20 μM protein-40 μM compound) for 10 min at 10° C. in the presence of the fluorescent dye SYPRO Orange. The samples were gradually exposed to increasing temperature (linear gradient from 10° C. to 95° C.), causing the protein to unfold. This unfolding allowed the fluorescent dye to bind to the protein's exposed hydrophobic residues, resulting in an increase in fluorescence. The thermal shift assay measures the protein's melting temperature (Tm), which is the temperature at which the protein denatures by 50%. Ligands can affect a protein target to thermal denaturation, which could manifest in a positive or negative shift in the protein denaturation temperature (ΔTm) (Bai N, Roder H, Dickson A, & Karanicolas J (2019) Scientific Reports 9; and Kranz J K & Schalk-Hihi C (2011) Fragment-Based Drug Design: Tools, Practical Approaches, and Examples 493:277-298). Using these two assays, a series of commercially available Pin1 inhibitors were profiled (Table 1). The non-covalent agent D-peptide resulted only moderately active, with an IC50 value of ˜3 μM that closely resembled the dissociation constant for this agent determined via isothermal titration calorimetry, and the ˜ 3 μM IC50 value as reported by a fluorescence polarization assay (Pinch B J, et al. (2020) Nat Chem Biol 16(9):979-987). […] (Table 1) was observed.
Thermal shift assays for Pin1 alone and in the presence of the inhibitors were obtained with a BioRad CFX Connect Real-Time PCR Detection System. Each data point was collected in quadruplicate. Each sample was prepared using buffer 50 mM Phosphate pH 7.5, 150 mM NaCl, 1% DMSO. Protein: ligand ratio used was 1:2 (20 μM protein-40 μM compound), and SYPRO Orange was used. Incubation of the Pin1 protein with the compounds was performed at 10° C. for 10 min. Samples were then heated from 10 to 95° C. with heating increments of 0.05° C., over 30 min. Fluorescence intensity was measured within the excitation/emission ranges 470-505/540-700 nm.

Pin1 [2] = target: T1, Pin1; assay: DELFIA displacement assay (displacement of biotinylated D-peptide from 6His-Pin1); format: binding; design: human Pin1 (residues 1-163); made in house; host or cells: E. coli BL21 (DE3) gold pLysS
Excerpt: as §1
For the reported covalent agents such as sulfopin (Dubiella C, et al. (2021) Nat Chem Biol 17(9):954-963), BJP-07-017-3 (Pinch B J, et al. (2020) Nat Chem Biol 16(9):979-987), or KPT-6566 (Campaner E, et al. (2017) Nat Commun 8:15772), a 6-h pre-incubation period was included in the DELFIA assay to allow the covalent reaction to take place. For those agents, IC50 values that fell in the low nanomolar range were observed, consistent with what was reported previously for those compounds. […] To make those determinations in a broader panel of cancer cell lines three pancreatic cancer cell lines, BxPC3, MIA-PaCa-2, and PANC-1, the breast cancer cell line MDA-MB-231, the prostate cancer cell line PC3, and the non-small cell lung cancer cell line A549 were chosen. Each cell line represents various states of KRAS activating mutations (for example BxPC3 is wt-KRAS, while MIAPaCa2 carries the KRAS(G12C) mutation, and the PANC-1 the KRAS(G12D) (Miquel M, Zhang S, & Pilarsky C (2021) Front Cell Dev Biol 9:748631), A549 is KRAS(G12S) (Wang H, et al. (2019) EBioMedicine 49:106-117), MDA-MB-231 is KRAS(G13D) (Kim R K, et al. (2015) Exp Mol Med 47(1):e137), PC3 is wt-KRAS (Bouali S, et al. (2009) Oncol Rep 21(3):731-735). Pin1 protein levels in these cell lines were established using a specific Pin1 antibody in western blot analyses (FIG. 1A). The data confirmed that all these selected human cancer cell lines expressed a significant level of Pin1 (FIG. 1A).
Each well of 96-well streptavidin-coated plates (PerkinElmer) was incubated with 100 μL of 200 nM biotinylated D-peptide for 2 h and washed 3 times with a wash solution (PerkinElmer). Subsequently, a mixture containing Pin1, and a serial dilution of the test compounds were pre-incubated for 6 h. Eu-N1-labeled anti-6x-His antibody (PerkinElmer, 1:2000) was then added to this mixture and further incubated in the biotinylated D-peptide-bound plates for another 2 h. […]

[3] = Table 3, two peaks observed, likely incomplete complex formation
[4] = Table 3, single transition, ± SE of four replicates
[5] = Table 4, single transition, ± SE of four replicates

T1 sequence (Q13526 whole entry, the tested form may be a part): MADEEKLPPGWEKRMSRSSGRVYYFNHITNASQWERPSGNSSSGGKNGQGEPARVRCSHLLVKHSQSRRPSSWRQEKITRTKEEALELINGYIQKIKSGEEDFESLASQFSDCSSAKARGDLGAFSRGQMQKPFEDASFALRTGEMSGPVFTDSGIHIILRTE

Structure (SMILES)	IC50 (Pin1 [2]; Table 3, ± SD from duplicates)	ΔTm (° C.) (Pin1 [1]; [4])	ΔTm (° C.) (Pin1 [1]; [5])	IC50 (Pin1 [2]; Table 4, ± SD from duplicates)	other results
O=C(CCl)N[C@@H](Cc1ccccc1)C(=O)N1CCCC[C@H]1C(=O)NCCc1c[nH]c2ccc(F)cc12 [158G7]	1.04 ± 0.316 µM				share of first thermal shift peak (Pin1 [1]; Table 3, percentage in brackets after first ΔTm): 50%; share of second thermal shift peak (Pin1 [1]; Table 3, percentage in brackets after second ΔTm): 50%; ΔTm (° C.), first of two peaks (Pin1 [1]; [3]): −0.45 ± 0.15 °C; ΔTm (° C.), second printed of two peaks (Pin1 [1]; [3]): −14.28 ± 0.28 °C
NC(=O)[C@H](Cc1c[nH]c2ccccc12)NC(=O)[C@@H]1CCCCN1C(=O)[C@H](Cc1c[nH]c2ccccc12)NC(=O)CCl [158G9] (HELM PEPTIDE1{[O=C(CCl)[*:2]].W.[O=C([C@@H]1CCCCN1[*:1])[*:2]].W.[am]}$$$$V2.0)	0.044 ± 0.008 µM	−9.42 ± 0.18 °C			IC50 (Pin1 [2]; running text and figure legends): 0.043 µM
NC(=O)[C@H](Cc1c[nH]c2ccccc12)NC(=O)[C@@H]1CCCCN1C(=O)[C@H](Cc1ccc(O)c([N+](=O)[O-])c1)NC(=O)CCl [158G10] (ClAc-[Tyr(3-NO2)]-[Pip]-Trp-NH2)	0.183 ± 0.012 µM	−10.44 ± 0.17 °C			
NC(=O)[C@H](Cc1c[nH]c2ccccc12)NC(=O)[C@@H]1CCCCN1C(=O)[C@H](Cc1ccc(F)cc1)NC(=O)CCl [158G11] (ClAc-[Phe(4-F)]-[Pip]-Trp-NH2)	0.146 ± 0.012 µM	−10.57 ± 0.11 °C			
NC(=O)[C@H](Cc1c[nH]c2ccccc12)NC(=O)[C@@H]1CCCCN1C(=O)[C@H](Cc1ccc(Cl)cc1)NC(=O)CCl [158G12] (ClAc-[Phe(4-Cl)]-[Pip]-Trp-NH2)	0.527 ± 0.038 µM				ΔTm (° C.) (Pin1 [1]; Table 5, only one transition given): −12.19 ± 0.07 °C
NC(=O)[C@H](Cc1c[nH]c2ccccc12)NC(=O)[C@@H]1CCCCN1C(=O)[C@H](Cc1ccncc1)NC(=O)CCl [158H1] (ClAc-[4Pal]-[Pip]-Trp-NH2)	0.099 ± 0.004 µM	−9.18 ± 0.07 °C			
NC(=O)[C@H](Cc1c[nH]c2ccccc12)NC(=O)[C@@H]1CCCCN1C(=O)[C@H](Cc1c[nH]c2ccc(O)cc12)NC(=O)CCl [158H3] (ClAc-[Trp(5-OH)]-[Pip]-Trp-NH2)			−6.56 ± 0.04 °C	0.056 ± 0.005 µM	
COc1ccc(C[C@H](NC(=O)CCl)C(=O)N2CCCC[C@H]2C(=O)N[C@@H](Cc2c[nH]c3ccccc23)C(N)=O)cc1 [158H5] (ClAc-Tyr(Me)-[Pip]-Trp-NH2)	0.0824 ± 0.0004 µM	−9.82 ± 0.08 °C			
Cc1cccc2c(C[C@H](NC(=O)CCl)C(=O)N3CCCC[C@H]3C(=O)N[C@@H](Cc3c[nH]c4ccccc34)C(N)=O)c[nH]c12 [158H7] (ClAc-[Trp(7-Me)]-[Pip]-Trp-NH2)			−10.11 ± 0.20 °C	0.091 ± 0.009 µM	
NC(=O)[C@H](Cc1c[nH]c2ccccc12)NC(=O)[C@@H]1CCCCN1C(=O)[C@H](Cc1c[nH]c2ccc(F)cc12)NC(=O)CCl [158H8] (ClAc-[Trp(5-F)]-[Pip]-Trp-NH2)			−9.81 ± 0.16 °C	0.0435 ± 0.0008 µM	
NC(=O)[C@H](Cc1c[nH]c2cc(Cl)ccc12)NC(=O)[C@@H]1CCCCN1C(=O)[C@H](Cc1c[nH]c2ccccc12)NC(=O)CCl [158H12] (ClAc-Trp-[Pip]-[Trp(6-Cl)]-NH2)			−9.21 ± 0.08 °C	0.031 ± 0.001 µM	
Cc1cccc2c(C[C@H](NC(=O)[C@@H]3CCCCN3C(=O)[C@@H]3Cc4c([nH]c5ccccc45)CN3C(=O)CCl)C(N)=O)c[nH]c12 [164A11]			+10.45 ± 0.07 °C		
